Assay results taken from the NIST ThermoML archive (doi:10.1021/je301301j).
± gives the expanded uncertainty stated by the source.

Experiment: molar heat capacity at constant pressure; xn = mol fraction of the nth substance listed
Details: 313.15 K, Liquid, Flow calorimetry

C=CCCCC [hex-1-ene] + CCCCO
molar heat capacity at constant pressure [J/K/mol]
Details	x2 = 0	x2 = 0.1001	x2 = 0.2	x2 = 0.3002	x2 = 0.3999	x2 = 0.5018	x2 = 0.5997	x2 = 0.7002	x2 = 0.7999	x2 = 0.9
100 kPa	188.8 ± 1.2	204.1 ± 1.3	208 ± 1.3	209.8 ± 1.3	210.3 ± 1.3	205.3 ± 1.3	203 ± 1.3	200.2 ± 1.2	198.3 ± 1.2	193.4 ± 1.2
5000 kPa	185.9 ± 1.1	199.9 ± 1.2	204.8 ± 1.3	206.6 ± 1.3	206.5 ± 1.3	202.6 ± 1.3	200.6 ± 1.2	197.6 ± 1.2	195.5 ± 1.2	192.5 ± 1.2
10000 kPa	183.1 ± 1.1	196.1 ± 1.2	201.3 ± 1.2	203.2 ± 1.3	203.8 ± 1.3	199.9 ± 1.2	197.8 ± 1.2	195.2 ± 1.2	193.1 ± 1.2	190.4 ± 1.2
15000 kPa	181.6 ± 1.1	193.2 ± 1.2	198.7 ± 1.2	200.9 ± 1.2	201.5 ± 1.2	197.5 ± 1.2	195.7 ± 1.2	194 ± 1.2	191.9 ± 1.2	188 ± 1.2
20000 kPa	179.6 ± 1.1	191 ± 1.2	196.2 ± 1.2	198.2 ± 1.2	199.5 ± 1.2	194.1 ± 1.2	193 ± 1.2	192 ± 1.2	190.4 ± 1.2	186.5 ± 1.2
25000 kPa	177.2 ± 1.1	188.1 ± 1.2	193.4 ± 1.2	194.5 ± 1.2	197 ± 1.2	192.9 ± 1.2	191.4 ± 1.2	189.4 ± 1.2	188.2 ± 1.2	185 ± 1.1
